EP0456418B1, “Treatment of clostridium difficile diarrhoea and pseudomembranous colitis” (KABUSHIKI KAISHA MIYARISAN SEIBUTSU IGAKU KENKYUSHO, priority 1990, dated 1991)
“Also recorded” adds a separate entry of the source.

Tested on: Clostridium difficile
Assay: Recurring Clostridium difficile diarrhoea model induced by CFT in golden hamsters
Type: in vivo
[1] = B group: six + 14 doses of VCM, 48 hours after termination of vancomycin

Q: Which “faecal state compared with A group” value [1] does the source give for `CN[C@H](CC(C)C)C(=O)N[C@H]1C(=O)N[C@@H](CC(N)=O)C(=O)N[C@H]2C(=O)N[C@H]3C(=O)N[C@H](C(=O)N[C@H](C(=O)O)c4cc(O)cc(O)c4-c4cc3ccc4O)[C@H](O)c3ccc(c(Cl)c3)Oc3cc2cc(c3O[C@@H]2O[C@H](CO)[C@@H](O)[C@H](O)[C@H]2O[C@H]2C[C@](C)(N)[C@H](O)[C@H](C)O2)Oc2ccc(cc2Cl)[C@H]1O` [vancomycin] here?
A: improvement in the faecal state

Q: What about the “ratio of Clostridium difficile detection” value [1] of the same compound?
A: one out of five

Q: What about the faecal state (six doses of vancomycin) of the same compound?
A: discernible improvement in the faecal state

Q: What about the “culture of Clostridium difficile from faeces” value (six doses of vancomycin (3 days administration), detection limit 400CFu/g faeces) of the same compound?
A: not so effective as to show negative culture; also recorded: positive culture

Q: What about the “culture of Clostridium difficile” value (vancomycin continued for a total of 10 days) of the same compound?
A: negative culture
